# Source: paper PMC11480411, “Mucosal sugars delineate pyrazine vs pyrazinone autoinducer signaling in Klebsiella oxytoca” (Nature Communications, 2024)
# Key:
# Experiment in all cases: PRESTO-Tango GPCR screen
# Type in all cases: cell-based
# Details in all cases: 100 µM
# CHRM2 = biological target: T1, CHRM2 (Homo sapiens, UniProt P08172)
# T1 construct: purchased PRESTO-Tango GPCR kit (Roth lab / Addgene)
# Method: (§1) The PRESTO-Tango analyses were performed as previously published. Briefly, HTLA cells, a HEK293 cell line that stably expresses β-arrestin-TEV and tTA-Luciferase (a kind gift from Gilad Barnea, Brown University), were plated in 96-well tissue culture plates (Eppendorf) in DMEM containing 10% FBS and 1% Penicillin/Streptomycin. One day after plating (after reaching approximately 90% confluence), 200 ng per well GPCR-Tango plasmids[37] in 20 μL DMEM were individually mixed with 400 ng polyethylenimine (Polysciences) in an equal volume of DMEM and incubated for 20 min at room temperature before adding the transfection mixture to the HTLA cells. 16-24 h after transfection, medium was replaced with 180 μL fresh DMEM containing 1% Penicillin/Streptomycin and 10 mM HEPES and 20 μL of 3 or 3-Homo to reach a final concentration of 100 μM. Supernatants were aspirated 20 h after stimulation and 50 μl per well of Bright-Glo solution (Promega) diluted 20-fold with PBS containing 20 mM HEPES was added into each well. After 15 min incubation at room temperature, luminescence was quantified using a Spectramax i3x microplate reader (Molecular Devices). Activation fold for each sample was calculated by dividing relative luminescence units (RLU) for each condition by RLUs from PBS control. Dose response curves of each chemical were performed in a similar way with varying the ligand concentration from 10^−4 M to 10^−15 M.
# TAAR8 = biological target: T2, TAAR8 (Homo sapiens, UniProt Q969N4)
# T2 construct: purchased PRESTO-Tango GPCR kit (Roth lab / Addgene)
# Method: as §1
# GPR157 = biological target: T3, GPR157 (Homo sapiens, UniProt Q5UAW9)
# T3 construct: purchased PRESTO-Tango GPCR kit (Roth lab / Addgene)
# Method: as §1
# CHRM3 = biological target: T4, CHRM3 (Homo sapiens, UniProt P20309)
# T4 construct: purchased PRESTO-Tango GPCR kit (Roth lab / Addgene)
# Method: as §1
# GPR84 = biological target: T5, GPR84 (Homo sapiens, UniProt Q9NQS5)
# T5 construct: purchased PRESTO-Tango GPCR kit (Roth lab / Addgene)
# Method: as §1
# GPR37 = biological target: T6, GPR37 (Homo sapiens, UniProt O15354)
# T6 construct: purchased PRESTO-Tango GPCR kit (Roth lab / Addgene)
# Method: as §1
# RXFP4 = biological target: T7, RXFP4 (Homo sapiens, UniProt Q8TDU9)
# T7 construct: purchased PRESTO-Tango GPCR kit (Roth lab / Addgene)
# Method: as §1
# MRGPRG = biological target: T8, MRGPRG (Homo sapiens, UniProt Q86SM5)
# T8 construct: purchased PRESTO-Tango GPCR kit (Roth lab / Addgene)
# Method: as §1
# LHCGR = biological target: T9, LHCGR (Homo sapiens, UniProt P22888)
# T9 construct: purchased PRESTO-Tango GPCR kit (Roth lab / Addgene)
# Method: as §1
# GRM5 = biological target: T10, GRM5 (Homo sapiens, UniProt P41594)
# T10 construct: purchased PRESTO-Tango GPCR kit (Roth lab / Addgene)
# Method: as §1
# GPER = biological target: T11, GPER (Homo sapiens, UniProt Q99527)
# T11 construct: purchased PRESTO-Tango GPCR kit (Roth lab / Addgene)
# Method: as §1
# DRD5 = biological target: T12, DRD5 (Homo sapiens, UniProt P21918)
# T12 construct: purchased PRESTO-Tango GPCR kit (Roth lab / Addgene)
# Method: as §1
# GPR31 = biological target: T13, GPR31 (Homo sapiens, UniProt O00270)
# T13 construct: purchased PRESTO-Tango GPCR kit (Roth lab / Addgene)
# Method: as §1
# OPRM1 = biological target: T14, OPRM1 (Homo sapiens, UniProt P35372)
# T14 construct: purchased PRESTO-Tango GPCR kit (Roth lab / Addgene)
# Method: as §1
# GPR110 = biological target: T15, GPR110 (Homo sapiens, UniProt Q5T601)
# T15 construct: purchased PRESTO-Tango GPCR kit (Roth lab / Addgene)
# Method: as §1
# CHRM5 = biological target: T16, CHRM5 (Homo sapiens, UniProt P08912)
# T16 construct: purchased PRESTO-Tango GPCR kit (Roth lab / Addgene)
# Method: as §1
# GPR161 = biological target: T17, GPR161 (Homo sapiens, UniProt Q8N6U8)
# T17 construct: purchased PRESTO-Tango GPCR kit (Roth lab / Addgene)
# Method: as §1
# CXCR1 = biological target: T18, CXCR1 (Homo sapiens, UniProt P25024)
# T18 construct: purchased PRESTO-Tango GPCR kit (Roth lab / Addgene)
# Method: as §1
# LPAR4 = biological target: T19, LPAR4 (Homo sapiens, UniProt Q99677)
# T19 construct: purchased PRESTO-Tango GPCR kit (Roth lab / Addgene)
# Method: as §1
# GPBA = biological target: T20, GPBA (Homo sapiens, UniProt Q8TDU6)
# T20 construct: purchased PRESTO-Tango GPCR kit (Roth lab / Addgene)
# Method: as §1
# P2RY12 = biological target: T21, P2RY12 (Homo sapiens, UniProt Q9H244)
# T21 construct: purchased PRESTO-Tango GPCR kit (Roth lab / Addgene)
# Method: as §1
# GLP2R = biological target: T22, GLP2R (Homo sapiens, UniProt O95838)
# T22 construct: purchased PRESTO-Tango GPCR kit (Roth lab / Addgene)
# Method: as §1
# CRHR1 = biological target: T23, CRHR1 (Homo sapiens, UniProt P34998)
# T23 construct: purchased PRESTO-Tango GPCR kit (Roth lab / Addgene)
# Method: as §1
# LPAR5 = biological target: T24, LPAR5 (Homo sapiens, UniProt Q9H1C0)
# T24 construct: purchased PRESTO-Tango GPCR kit (Roth lab / Addgene)
# Method: as §1
# GPR19 = biological target: T25, GPR19 (Homo sapiens, UniProt Q15760)
# T25 construct: purchased PRESTO-Tango GPCR kit (Roth lab / Addgene)
# Method: as §1
# PTGER2 = biological target: T26, PTGER2 (Homo sapiens, UniProt P43116)
# T26 construct: purchased PRESTO-Tango GPCR kit (Roth lab / Addgene)
# Method: as §1
# NPS = biological target: T27, NPS (Homo sapiens, UniProt Q6W5P4)
# T27 construct: purchased PRESTO-Tango GPCR kit (Roth lab / Addgene)
# Method: as §1
# GPR97 = biological target: T28, GPR97 (Homo sapiens, UniProt Q86Y34)
# T28 construct: purchased PRESTO-Tango GPCR kit (Roth lab / Addgene)
# Method: as §1
# EDNRB = biological target: T29, EDNRB (Homo sapiens, UniProt P24530)
# T29 construct: purchased PRESTO-Tango GPCR kit (Roth lab / Addgene)
# Method: as §1
# S1PR5 = biological target: T30, S1PR5 (Homo sapiens, UniProt Q9H228)
# T30 construct: purchased PRESTO-Tango GPCR kit (Roth lab / Addgene)
# Method: as §1
# FSHR = biological target: T31, FSHR (Homo sapiens, UniProt P23945)
# T31 construct: purchased PRESTO-Tango GPCR kit (Roth lab / Addgene)
# Method: as §1
# GPR182 = biological target: T32, GPR182 (Homo sapiens, UniProt O15218)
# T32 construct: purchased PRESTO-Tango GPCR kit (Roth lab / Addgene)
# Method: as §1
# TAAR6 = biological target: T33, TAAR6 (Homo sapiens, UniProt Q96RI8)
# T33 construct: purchased PRESTO-Tango GPCR kit (Roth lab / Addgene)
# Method: as §1
# S1PR1 = biological target: T34, S1PR1 (Homo sapiens, UniProt P21453)
# T34 construct: purchased PRESTO-Tango GPCR kit (Roth lab / Addgene)
# Method: as §1
# GPR87 = biological target: T35, GPR87 (Homo sapiens, UniProt Q9BY21)
# T35 construct: purchased PRESTO-Tango GPCR kit (Roth lab / Addgene)
# Method: as §1
# GRM1 = biological target: T36, GRM1 (Homo sapiens, UniProt Q13255)
# T36 construct: purchased PRESTO-Tango GPCR kit (Roth lab / Addgene)
# Method: as §1
# T4 sequence (P20309 whole entry): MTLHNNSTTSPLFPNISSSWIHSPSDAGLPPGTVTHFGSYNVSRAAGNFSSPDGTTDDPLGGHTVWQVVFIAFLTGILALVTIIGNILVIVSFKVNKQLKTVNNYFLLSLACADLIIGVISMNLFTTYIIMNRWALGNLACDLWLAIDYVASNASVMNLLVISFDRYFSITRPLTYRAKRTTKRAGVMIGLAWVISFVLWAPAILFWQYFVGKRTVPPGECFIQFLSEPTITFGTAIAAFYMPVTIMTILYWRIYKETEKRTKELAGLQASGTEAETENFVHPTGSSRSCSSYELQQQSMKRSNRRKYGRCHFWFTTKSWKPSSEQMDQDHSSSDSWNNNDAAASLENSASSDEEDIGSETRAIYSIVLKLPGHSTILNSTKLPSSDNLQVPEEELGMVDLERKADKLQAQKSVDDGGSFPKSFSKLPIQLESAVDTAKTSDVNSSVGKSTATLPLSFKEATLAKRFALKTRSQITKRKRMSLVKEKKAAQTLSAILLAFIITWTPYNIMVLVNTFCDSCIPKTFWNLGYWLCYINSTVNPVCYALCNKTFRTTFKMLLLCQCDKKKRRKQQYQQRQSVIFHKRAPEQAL
# T17 sequence (Q8N6U8 whole entry): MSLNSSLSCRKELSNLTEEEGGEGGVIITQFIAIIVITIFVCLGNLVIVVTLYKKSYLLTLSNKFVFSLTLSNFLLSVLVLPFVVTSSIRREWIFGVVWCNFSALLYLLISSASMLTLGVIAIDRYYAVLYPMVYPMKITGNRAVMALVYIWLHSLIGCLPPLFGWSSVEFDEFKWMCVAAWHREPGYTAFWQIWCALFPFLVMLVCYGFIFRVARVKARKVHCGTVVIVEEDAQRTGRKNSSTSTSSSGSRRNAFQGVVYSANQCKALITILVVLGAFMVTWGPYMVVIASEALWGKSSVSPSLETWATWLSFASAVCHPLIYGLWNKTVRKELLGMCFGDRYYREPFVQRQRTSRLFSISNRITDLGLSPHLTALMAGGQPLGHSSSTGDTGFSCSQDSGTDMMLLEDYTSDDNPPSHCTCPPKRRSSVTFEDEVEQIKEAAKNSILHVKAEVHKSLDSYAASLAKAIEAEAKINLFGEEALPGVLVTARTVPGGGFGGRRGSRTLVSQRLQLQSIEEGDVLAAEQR
# T13 sequence (O00270 whole entry): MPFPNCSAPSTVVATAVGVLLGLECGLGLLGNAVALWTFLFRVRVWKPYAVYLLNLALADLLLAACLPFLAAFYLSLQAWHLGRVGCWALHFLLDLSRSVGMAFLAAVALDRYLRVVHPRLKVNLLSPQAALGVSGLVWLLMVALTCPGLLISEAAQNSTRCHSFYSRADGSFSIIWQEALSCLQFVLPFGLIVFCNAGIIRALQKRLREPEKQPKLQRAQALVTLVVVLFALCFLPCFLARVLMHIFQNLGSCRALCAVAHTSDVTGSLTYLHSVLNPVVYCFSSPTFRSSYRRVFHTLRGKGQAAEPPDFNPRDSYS
# T20 sequence (Q8TDU6 whole entry): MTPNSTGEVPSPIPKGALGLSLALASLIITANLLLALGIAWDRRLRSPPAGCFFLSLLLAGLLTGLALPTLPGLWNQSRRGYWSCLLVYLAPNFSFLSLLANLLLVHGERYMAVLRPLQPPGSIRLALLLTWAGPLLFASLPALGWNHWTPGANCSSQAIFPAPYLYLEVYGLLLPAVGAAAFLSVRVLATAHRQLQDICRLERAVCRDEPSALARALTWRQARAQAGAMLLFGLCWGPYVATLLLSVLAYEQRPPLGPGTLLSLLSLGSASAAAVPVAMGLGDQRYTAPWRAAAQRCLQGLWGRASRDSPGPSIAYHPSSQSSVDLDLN
# T24 sequence (Q9H1C0 whole entry): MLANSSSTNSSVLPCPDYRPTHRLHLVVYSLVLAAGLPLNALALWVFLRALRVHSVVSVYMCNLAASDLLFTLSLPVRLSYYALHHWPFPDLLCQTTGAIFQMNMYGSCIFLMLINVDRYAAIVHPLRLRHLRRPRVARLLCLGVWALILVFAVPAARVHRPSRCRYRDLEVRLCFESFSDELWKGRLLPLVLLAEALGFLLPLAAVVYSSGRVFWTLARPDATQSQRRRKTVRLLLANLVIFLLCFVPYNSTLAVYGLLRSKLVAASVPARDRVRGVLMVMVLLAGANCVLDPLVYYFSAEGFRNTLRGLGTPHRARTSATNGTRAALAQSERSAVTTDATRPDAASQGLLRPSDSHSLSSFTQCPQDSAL
# T9 sequence (P22888 27-699): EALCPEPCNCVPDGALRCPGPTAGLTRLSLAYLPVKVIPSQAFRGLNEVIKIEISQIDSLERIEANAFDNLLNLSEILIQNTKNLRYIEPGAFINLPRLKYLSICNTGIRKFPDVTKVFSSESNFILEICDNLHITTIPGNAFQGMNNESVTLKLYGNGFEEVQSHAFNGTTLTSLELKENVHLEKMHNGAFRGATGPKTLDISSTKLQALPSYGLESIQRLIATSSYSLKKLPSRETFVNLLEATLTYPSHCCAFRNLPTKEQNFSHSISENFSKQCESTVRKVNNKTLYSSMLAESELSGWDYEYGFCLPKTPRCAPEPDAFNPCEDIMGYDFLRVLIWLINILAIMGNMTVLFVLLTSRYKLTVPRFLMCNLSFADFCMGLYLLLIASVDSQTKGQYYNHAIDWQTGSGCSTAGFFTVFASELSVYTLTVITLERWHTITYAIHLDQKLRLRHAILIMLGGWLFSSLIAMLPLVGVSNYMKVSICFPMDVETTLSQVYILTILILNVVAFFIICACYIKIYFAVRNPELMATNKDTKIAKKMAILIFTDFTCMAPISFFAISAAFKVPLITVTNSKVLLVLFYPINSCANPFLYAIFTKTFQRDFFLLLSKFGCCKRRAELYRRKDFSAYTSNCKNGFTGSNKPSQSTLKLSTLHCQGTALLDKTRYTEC
# T26 sequence (P43116 whole entry): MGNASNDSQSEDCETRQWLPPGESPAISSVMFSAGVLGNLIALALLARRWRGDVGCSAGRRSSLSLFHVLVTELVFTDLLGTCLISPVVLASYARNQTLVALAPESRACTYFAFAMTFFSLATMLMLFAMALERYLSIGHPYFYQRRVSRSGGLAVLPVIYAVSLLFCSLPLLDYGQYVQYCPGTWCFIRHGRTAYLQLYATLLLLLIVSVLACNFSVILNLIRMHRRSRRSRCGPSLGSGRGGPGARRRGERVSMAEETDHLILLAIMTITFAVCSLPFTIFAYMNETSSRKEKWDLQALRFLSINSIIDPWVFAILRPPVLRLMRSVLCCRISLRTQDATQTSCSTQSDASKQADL
# T15 sequence (Q5T601 20-910): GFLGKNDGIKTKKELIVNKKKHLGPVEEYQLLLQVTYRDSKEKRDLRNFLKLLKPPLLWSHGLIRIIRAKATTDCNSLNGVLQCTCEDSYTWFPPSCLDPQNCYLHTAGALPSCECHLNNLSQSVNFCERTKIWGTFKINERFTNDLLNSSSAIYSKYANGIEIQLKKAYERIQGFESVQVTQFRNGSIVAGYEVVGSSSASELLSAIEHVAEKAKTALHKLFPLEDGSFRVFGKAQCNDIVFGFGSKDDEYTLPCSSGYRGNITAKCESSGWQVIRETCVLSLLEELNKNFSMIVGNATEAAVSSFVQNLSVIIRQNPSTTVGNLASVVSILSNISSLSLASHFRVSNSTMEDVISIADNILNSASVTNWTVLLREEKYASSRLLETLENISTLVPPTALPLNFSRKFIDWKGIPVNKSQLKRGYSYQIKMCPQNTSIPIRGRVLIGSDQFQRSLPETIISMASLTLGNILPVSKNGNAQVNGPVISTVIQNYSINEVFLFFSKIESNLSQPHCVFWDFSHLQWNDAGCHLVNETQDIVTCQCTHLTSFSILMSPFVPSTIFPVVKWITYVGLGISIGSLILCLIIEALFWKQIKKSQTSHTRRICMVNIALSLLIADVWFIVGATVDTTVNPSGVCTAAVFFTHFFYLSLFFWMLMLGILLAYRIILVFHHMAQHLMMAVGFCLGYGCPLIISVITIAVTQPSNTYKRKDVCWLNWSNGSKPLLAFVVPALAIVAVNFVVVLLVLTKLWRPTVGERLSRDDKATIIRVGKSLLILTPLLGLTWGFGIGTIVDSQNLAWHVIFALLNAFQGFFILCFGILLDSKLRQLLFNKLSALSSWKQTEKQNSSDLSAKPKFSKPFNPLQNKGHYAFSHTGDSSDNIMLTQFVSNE
# T29 sequence (P24530 27-442): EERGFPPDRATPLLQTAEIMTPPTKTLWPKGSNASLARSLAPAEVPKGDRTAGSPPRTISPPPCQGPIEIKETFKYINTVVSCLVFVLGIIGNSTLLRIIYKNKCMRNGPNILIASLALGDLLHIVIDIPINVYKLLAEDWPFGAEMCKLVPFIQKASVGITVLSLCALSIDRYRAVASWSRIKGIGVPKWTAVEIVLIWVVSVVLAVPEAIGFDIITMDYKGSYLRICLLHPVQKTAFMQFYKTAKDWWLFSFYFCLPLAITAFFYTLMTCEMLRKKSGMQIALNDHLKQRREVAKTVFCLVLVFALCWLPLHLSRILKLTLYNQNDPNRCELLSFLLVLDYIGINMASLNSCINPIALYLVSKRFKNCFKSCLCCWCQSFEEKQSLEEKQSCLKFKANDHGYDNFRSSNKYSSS
# T1 sequence (P08172 whole entry): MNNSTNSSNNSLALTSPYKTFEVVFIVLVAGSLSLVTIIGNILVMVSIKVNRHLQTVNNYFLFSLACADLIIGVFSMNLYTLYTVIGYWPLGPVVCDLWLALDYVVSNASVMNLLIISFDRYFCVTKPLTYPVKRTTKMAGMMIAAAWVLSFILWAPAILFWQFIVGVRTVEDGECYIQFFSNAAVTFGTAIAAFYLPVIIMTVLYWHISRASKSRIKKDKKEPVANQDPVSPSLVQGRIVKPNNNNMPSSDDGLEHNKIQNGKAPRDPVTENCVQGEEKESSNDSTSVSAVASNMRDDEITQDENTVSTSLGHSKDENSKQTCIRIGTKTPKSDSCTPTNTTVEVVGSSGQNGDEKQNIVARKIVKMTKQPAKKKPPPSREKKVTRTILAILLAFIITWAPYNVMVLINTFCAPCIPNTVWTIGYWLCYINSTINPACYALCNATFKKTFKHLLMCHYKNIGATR
Compound,GPCR activation (heatmap value) (CHRM2),GPCR activation (heatmap value) (TAAR8),GPCR activation (heatmap value) (GPR157),GPCR activation (heatmap value) (CHRM3),GPCR activation (heatmap value) (GPR84),GPCR activation (heatmap value) (GPR37),GPCR activation (heatmap value) (RXFP4),GPCR activation (heatmap value) (MRGPRG),GPCR activation (heatmap value) (LHCGR),GPCR activation (heatmap value) (GRM5),GPCR activation (heatmap value) (GPER),GPCR activation (heatmap value) (DRD5),GPCR activation (heatmap value) (GPR31),GPCR activation (heatmap value) (OPRM1),GPCR activation (heatmap value) (GPR110),GPCR activation (heatmap value) (CHRM5),GPCR activation (heatmap value) (GPR161),GPCR activation (heatmap value) (CXCR1),GPCR activation (heatmap value) (LPAR4),GPCR activation (heatmap value) (GPBA),other results
CC(C)Cc1ncc(CCCCNC(=N)N)[nH]c1=O [3-Homo],0.1441,-0.2862,0.207,0.5889,0.1656,-0.008314,-0.8625,-0.5195,0.1782,-0.9141,-0.07314,-0.03134,0.09636,0.127,-1.142,-0.008955,0.03788,0.5406,-0.163,-0.06085,GPCR activation (heatmap value) (P2RY12): 0.3372; GPCR activation (heatmap value) (GLP2R): -0.3479; GPCR activation (heatmap value) (CRHR1): 0.4025; GPCR activation (heatmap value) (LPAR5): 0.1689; GPCR activation (heatmap value) (GPR19): -0.2115; GPCR activation (heatmap value) (PTGER2): -0.3082; GPCR activation (heatmap value) (NPS): -0.3425; GPCR activation (heatmap value) (GPR97): -0.2469; GPCR activation (heatmap value) (EDNRB): -0.6292; GPCR activation (heatmap value) (S1PR5): -0.7802; GPCR activation (heatmap value) (FSHR): -0.01288; GPCR activation (heatmap value) (GPR182): -0.244; GPCR activation (heatmap value) (TAAR6): 0.5054; GPCR activation (heatmap value) (S1PR1): -0.03733; GPCR activation (heatmap value) (GPR87): -0.5192; GPCR activation (heatmap value) (GRM1): -0.1347
CC(C)Cc1ncc(CCCNC(=N)N)[nH]c1=O [compound 3],0.33,0.314,0.4215,-0.8614,-0.1947,-0.4356,-0.6712,-0.5206,0.1147,0.02679,0.1603,1.05,0.1606,1.469,0.3323,0.7902,0.1774,0.1868,0.3739,-0.136,GPCR activation (heatmap value) (P2RY12): 0.4559; GPCR activation (heatmap value) (GLP2R): 0.1898; GPCR activation (heatmap value) (CRHR1): -0.3752; GPCR activation (heatmap value) (LPAR5): 0.04943; GPCR activation (heatmap value) (GPR19): -0.1336; GPCR activation (heatmap value) (PTGER2): -0.3243; GPCR activation (heatmap value) (NPS): -0.7734; GPCR activation (heatmap value) (GPR97): -0.1675; GPCR activation (heatmap value) (EDNRB): 0.7397; GPCR activation (heatmap value) (S1PR5): 0; GPCR activation (heatmap value) (FSHR): 0.2361; GPCR activation (heatmap value) (GPR182): -0.4224; GPCR activation (heatmap value) (TAAR6): 0.2505; GPCR activation (heatmap value) (S1PR1): -0.122; GPCR activation (heatmap value) (GPR87): -0.4548; GPCR activation (heatmap value) (GRM1): 0.374
